Drawing on patent US5420335A, “Parenteral nutrients based on watersoluble glycerol bisacetoacetates” (priority 1993, dated 1995), this text covers metabolized in vivo and water solubility for two molecules.

“Also recorded” adds a separate entry of the source. Read-outs that look alike come from different tables or passages of the source.

For data set [1] the following is noted: in words; cited from earlier work.
For data set [2] the following is noted: in words, prior art; cited from earlier work.
The next data set can be described thus: Water solubility. The conditions noted are these: in words.

As for `CC(=O)CC(=O)OCC(O)CO` (stereo not drawn) [monoacetoacetin, monoacetoacetylglycerol], in data set [1], the metabolized in vivo result is listed as “metabolized in vivo”. Besides, the water solubility entry in data set [2] is “water soluble”.

For the molecule `CC(=O)CC(=O)OCC(COC(=O)CC(C)=O)OC(=O)CC(C)=O` [trisacetoacetyl glycerol, trisacetoacetylglycerol], in the data set “Water solubility”, the water solubility result is “rendered water soluble when in the presence of a glycerol bisacetoacetate; also recorded: insoluble by itself in water; also recorded: surprisingly solubilized in water when in the presence of 1,2- and 1,3-bisacetoacetyl glycerol”.
